{"source": "patent US7118895B2", "about": "“Process for producing aglycon by using diglycosidase and flavor-improved food containing the aglycon and converting agent to be used in the process” (Amano Enzyme Inc., priority 2000, dated 2006)", "system": "Crude diglycosidase", "assay": "Examination of pH in the conversion into isoflavone aglycons by diglycosidase using soybean materials", "format": "biochemical, Penicillium multicolor IAM7153", "settings": "for Decomposition efficiency of glycitin family in roasted soy flour / Decomposition efficiency of glycitin family in soymilk: 55° C.", "experimental": "A substrate solution of 450 μL was prepared by suspending 50 mg of each soybean material (roasted soy flour (manufactured by Fuji Shokuryo K.K.), soymilk (manufactured by Gitoh Shokuhin K.K.), defatted soybean (manufactured by Fuji Seiyu K.K.), concentrated soybean protein (manufactured by Fuji Seiyu K.K.)), and adjusting the pH to 2 to 11 with hydrochloric acid or sodium hydroxide. Each enzyme solution of pH 2–11 wherein diglycosidase activity of crude diglycosidase was adjusted to 1.88 AU/mL was added thereto in an amount of 50 μL and the whole was reacted at 55° C. at the total volume of 500 μL. To the reaction mixture was added 700 μL of ethanol after 0, 1, 3, and 6 hours of the reaction. After stirring and ultrasonication, the mixture was subjected to centrifugal separation at 15,000 rpm and 4° C. for 10 minutes. The supernatant was filtered through a filter and the existence of isoflavone glycosides and aglycon isoflavones contained in the reaction mixture was detected by HLPC (Tables 15 to 26).", "data": [{"smiles": "COc1cc2c(=O)c(-c3ccc(O)cc3)coc2cc1O[C@@H]1O[C@H](COC(C)=O)[C@@H](O)[C@H](O)[C@H]1O", "note": "[acetylglycitin, 6″-O-acetylglycitin]", "values": [{"measurement": "Decomposition efficiency of glycitin family in concentrated soybean protein", "setting": "pH1.6, heat treatment of enzyme: no, reaction time 0 h", "result": 35.9, "unit": "%"}, {"measurement": "Decomposition efficiency of glycitin family in concentrated soybean protein", "setting": "pH1.6, heat treatment of enzyme: no, reaction time 1 h", "result": 35.1, "unit": "%"}, {"measurement": "Decomposition efficiency of glycitin family in concentrated soybean protein", "setting": "pH1.6, heat treatment of enzyme: no, reaction time 3 h", "result": 33.5, "unit": "%"}, {"measurement": "Decomposition efficiency of glycitin family in concentrated soybean protein", "setting": "pH1.6, heat treatment of enzyme: no, reaction time 6 h", "result": 31.8, "unit": "%"}, {"measurement": "Decomposition efficiency of glycitin family in concentrated soybean protein", "setting": "pH1.6, heat treatment of enzyme: yes, reaction time 6 h", "result": 30.9, "unit": "%"}, {"measurement": "Decomposition efficiency of glycitin family in roasted soy flour", "setting": "pH2, heat treatment of enzyme no, reaction time 0 h", "result": 35.3}, {"measurement": "Decomposition efficiency of glycitin family in roasted soy flour", "setting": "pH2, heat treatment of enzyme no, reaction time 1 h", "result": 34.0}, {"measurement": "Decomposition efficiency of glycitin family in roasted soy flour", "setting": "pH2, heat treatment of enzyme no, reaction time 3 h", "result": 34.2}, {"measurement": "Decomposition efficiency of glycitin family in roasted soy flour", "setting": "pH2, heat treatment of enzyme no, reaction time 6 h", "result": 35.5}, {"measurement": "Decomposition efficiency of glycitin family in roasted soy flour", "setting": "pH2, heat treatment of enzyme yes, reaction time 6 h", "result": 35.2}, {"measurement": "Decomposition efficiency of glycitin family in soymilk", "setting": "pH2.3, heat treatment of enzyme no, reaction time 0 h", "result": "not detected"}, {"measurement": "Decomposition efficiency of glycitin family in soymilk", "setting": "pH2.3, heat treatment of enzyme no, reaction time 1 h", "result": "not detected"}, {"measurement": "Decomposition efficiency of glycitin family in soymilk", "setting": "pH2.3, heat treatment of enzyme no, reaction time 3 h", "result": "not detected"}, {"measurement": "Decomposition efficiency of glycitin family in soymilk", "setting": "pH2.3, heat treatment of enzyme no, reaction time 6 h", "result": "not detected"}, {"measurement": "Decomposition efficiency of glycitin family in soymilk", "setting": "pH2.3, heat treatment of enzyme yes, reaction time 6 h", "result": "not detected"}, {"measurement": "Decomposition efficiency of glycitin family in defatted soybean", "setting": "pH2.6, heat treatment of enzyme: no, reaction time 0 h", "result": "not detected"}, {"measurement": "Decomposition efficiency of glycitin family in defatted soybean", "setting": "pH2.6, heat treatment of enzyme: no, reaction time 1 h", "result": "not detected"}, {"measurement": "Decomposition efficiency of glycitin family in defatted soybean", "setting": "pH2.6, heat treatment of enzyme: no, reaction time 3 h", "result": "not detected"}, {"measurement": "Decomposition efficiency of glycitin family in defatted soybean", "setting": "pH2.6, heat treatment of enzyme: no, reaction time 6 h", "result": "not detected"}, {"measurement": "Decomposition efficiency of glycitin family in defatted soybean", "setting": "pH2.6, heat treatment of enzyme: yes, reaction time 6 h", "result": "not detected"}, {"measurement": "Decomposition efficiency of glycitin family in concentrated soybean protein", "setting": "pH2.7, heat treatment of enzyme: no, reaction time 0 h", "result": 35.9, "unit": "%"}, {"measurement": "Decomposition efficiency of glycitin family in concentrated soybean protein", "setting": "pH2.7, heat treatment of enzyme: no, reaction time 1 h", "result": 36.6, "unit": "%"}, {"measurement": "Decomposition efficiency of glycitin family in concentrated soybean protein", "setting": "pH2.7, heat treatment of enzyme: no, reaction time 3 h", "result": 36.5, "unit": "%"}, {"measurement": "Decomposition efficiency of glycitin family in concentrated soybean protein", "setting": "pH2.7, heat treatment of enzyme: no, reaction time 6 h", "result": 36.6, "unit": "%"}, {"measurement": "Decomposition efficiency of glycitin family in concentrated soybean protein", "setting": "pH2.7, heat treatment of enzyme: yes, reaction time 6 h", "result": 35.4, "unit": "%"}, {"measurement": "Decomposition efficiency of glycitin family in roasted soy flour", "setting": "pH3, heat treatment of enzyme no, reaction time 0 h", "result": 35.3}, {"measurement": "Decomposition efficiency of glycitin family in roasted soy flour", "setting": "pH3, heat treatment of enzyme no, reaction time 1 h", "result": 38.7}, {"measurement": "Decomposition efficiency of glycitin family in roasted soy flour", "setting": "pH3, heat treatment of enzyme no, reaction time 3 h", "result": 30.8}, {"measurement": "Decomposition efficiency of glycitin family in roasted soy flour", "setting": "pH3, heat treatment of enzyme no, reaction time 6 h", "result": 31.7}, {"measurement": "Decomposition efficiency of glycitin family in roasted soy flour", "setting": "pH3, heat treatment of enzyme yes, reaction time 6 h", "result": 35.6}, {"measurement": "Decomposition efficiency of glycitin family in defatted soybean", "setting": "pH3.4, heat treatment of enzyme: no, reaction time 0 h", "result": "not detected"}, {"measurement": "Decomposition efficiency of glycitin family in defatted soybean", "setting": "pH3.4, heat treatment of enzyme: no, reaction time 1 h", "result": "not detected"}, {"measurement": "Decomposition efficiency of glycitin family in defatted soybean", "setting": "pH3.4, heat treatment of enzyme: no, reaction time 3 h", "result": "not detected"}, {"measurement": "Decomposition efficiency of glycitin family in defatted soybean", "setting": "pH3.4, heat treatment of enzyme: no, reaction time 6 h", "result": "not detected"}, {"measurement": "Decomposition efficiency of glycitin family in defatted soybean", "setting": "pH3.4, heat treatment of enzyme: yes, reaction time 6 h", "result": "not detected"}, {"measurement": "Decomposition efficiency of glycitin family in soymilk", "setting": "pH3.5, heat treatment of enzyme no, reaction time 0 h", "result": "not detected"}, {"measurement": "Decomposition efficiency of glycitin family in soymilk", "setting": "pH3.5, heat treatment of enzyme no, reaction time 1 h", "result": "not detected"}, {"measurement": "Decomposition efficiency of glycitin family in soymilk", "setting": "pH3.5, heat treatment of enzyme no, reaction time 3 h", "result": "not detected"}, {"measurement": "Decomposition efficiency of glycitin family in soymilk", "setting": "pH3.5, heat treatment of enzyme no, reaction time 6 h", "result": "not detected"}, {"measurement": "Decomposition efficiency of glycitin family in soymilk", "setting": "pH3.5, heat treatment of enzyme yes, reaction time 6 h", "result": "not detected"}, {"measurement": "Decomposition efficiency of glycitin family in concentrated soybean protein", "setting": "pH3.7, heat treatment of enzyme: no, reaction time 0 h", "result": 36.1, "unit": "%"}, {"measurement": "Decomposition efficiency of glycitin family in concentrated soybean protein", "setting": "pH3.7, heat treatment of enzyme: no, reaction time 1 h", "result": 32.9, "unit": "%"}, {"measurement": "Decomposition efficiency of glycitin family in concentrated soybean protein", "setting": "pH3.7, heat treatment of enzyme: no, reaction time 3 h", "result": 26.1, "unit": "%"}, {"measurement": "Decomposition efficiency of glycitin family in concentrated soybean protein", "setting": "pH3.7, heat treatment of enzyme: no, reaction time 6 h", "result": 22.1, "unit": "%"}, {"measurement": "Decomposition efficiency of glycitin family in concentrated soybean protein", "setting": "pH3.7, heat treatment of enzyme: yes, reaction time 6 h", "result": 35.9, "unit": "%"}, {"measurement": "Decomposition efficiency of glycitin family in roasted soy flour", "setting": "pH4, heat treatment of enzyme no, reaction time 0 h", "result": 34.8}, {"measurement": "Decomposition efficiency of glycitin family in roasted soy flour", "setting": "pH4, heat treatment of enzyme no, reaction time 1 h", "result": 18.8}, {"measurement": "Decomposition efficiency of glycitin family in roasted soy flour", "setting": "pH4, heat treatment of enzyme no, reaction time 3 h", "result": 8.2}, {"measurement": "Decomposition efficiency of glycitin family in roasted soy flour", "setting": "pH4, heat treatment of enzyme no, reaction time 6 h", "result": "not detected"}, {"measurement": "Decomposition efficiency of glycitin family in roasted soy flour", "setting": "pH4, heat treatment of enzyme yes, reaction time 6 h", "result": 35.9}, {"measurement": "Decomposition efficiency of glycitin family in soymilk", "setting": "pH4.8, heat treatment of enzyme no, reaction time 0 h", "result": "not detected"}, {"measurement": "Decomposition efficiency of glycitin family in soymilk", "setting": "pH4.8, heat treatment of enzyme no, reaction time 1 h", "result": "not detected"}, {"measurement": "Decomposition efficiency of glycitin family in soymilk", "setting": "pH4.8, heat treatment of enzyme no, reaction time 3 h", "result": "not detected"}, {"measurement": "Decomposition efficiency of glycitin family in soymilk", "setting": "pH4.8, heat treatment of enzyme no, reaction time 6 h", "result": "not detected"}, {"measurement": "Decomposition efficiency of glycitin family in soymilk", "setting": "pH4.8, heat treatment of enzyme yes, reaction time 6 h", "result": "not detected"}, {"measurement": "Decomposition efficiency of glycitin family in defatted soybean", "setting": "pH4.8, heat treatment of enzyme: no, reaction time 0 h", "result": "not detected"}, {"measurement": "Decomposition efficiency of glycitin family in defatted soybean", "setting": "pH4.8, heat treatment of enzyme: no, reaction time 1 h", "result": "not detected"}, {"measurement": "Decomposition efficiency of glycitin family in defatted soybean", "setting": "pH4.8, heat treatment of enzyme: no, reaction time 3 h", "result": "not detected"}, {"measurement": "Decomposition efficiency of glycitin family in defatted soybean", "setting": "pH4.8, heat treatment of enzyme: no, reaction time 6 h", "result": "not detected"}, {"measurement": "Decomposition efficiency of glycitin family in defatted soybean", "setting": "pH4.8, heat treatment of enzyme: yes, reaction time 6 h", "result": "not detected"}]}]}
